Entries after “also recorded” stand apart in the source; their conditions may differ.
Tests used:
[1] = Cardiotoxicity / LVEF in breast cancer patients after DOX treatment; type: in vivo, human
Text: Chemotherapy-associated cardiotoxicity is defined as either a cardiomyopathy with a reduction of left ventricular ejection fraction (LVEF) ≥5% to <55% with symptoms of heart failure or an asymptomatic reduction of LVEF ≥10% to <55% by the Cardiac Review and Evaluation Committee (CREC) (7).

[2] = tested on: plasma of breast cancer patient; assay: 14,15-DHET nanowell label-free analysis of patient plasma; type: in vivo, human; settings: Patient #4, 10-fold diluted plasma, after vs before 3 months DOX, n=4
Procedure: The plasma samples of Patient #4 (10-fold diluted) who developed DOX-dependent cardiotoxicity 3 and 6 months after completion of the 3 months DOX treatment were obtained before and after 3 months DOX treatment (FIG. 4).
The bare gold surface of the 8-channel 90 nm or 200 nm nanowell electrode (Detroit R&D) was coated with a self-assembly monolayer (SAM) by incubating the electrode with 10 mM of 11-mercaptoundecanoic acid (MUA) (Sigma) for 1 hr at room temperature and activated using 50 mM EDC and 50 mM NHS. The 14,15-DHET IgG (Detroit R&D) (FIG. 6A) or TnI IgG (Detroit R&D) (FIG. 6B) in PBS (2.5 μg/ml) was added to the EDC/NHS-activated electrode. The IgG level to obtain optimal results was experimentally obtained by using electrodes coated with various concentrations of IgG ranging 1 to 10 μg/ml.

[3] = DOX 3 months followed by one-year trastuzumab, HER2-positive breast cancer patients, ref (5); cited from earlier work
[4] = tested on: plasma of breast cancer patients; assay: Plasma 14,15-DHET by ELISA in breast cancer patients before and after DOX
Procedure: Plasma samples were extracted using ethyl acetate and levels of 14,15-DHET were assessed in triplicate for ELISA.
A blind test for the early biomarker, 14,15-DHET (metabolite of sEH), was carried out with plasma samples from 5 breast cancer patients obtained before and after 3 months of DOX treatment (FIG. 4).
Fatty acids in the plasma samples (50 μl/sample) were extracted with ethyl acetate and levels of 14,15-DHET were assessed in triplicate samples using an ELISA kit from Detroit R&D.
Plasma samples from 5 breast cancer patients obtained before (n=5) and after (n=5) 3 months of DOX treatment (60 mg/m^2/injection for 4 injections).
Biologically active fatty acids in the plasma samples (50 μl/sample) were extracted with ethyl acetate, dried and re-suspended with 30 μl of DMF followed by dilution buffer to 900 μl. Levels of 14,15-DHET were assessed in triplicate using an ELISA kit from Detroit R&D (100 μl/well).

[5] = tested on: rat heart tissue; assay: Histological analysis of heart tissue of DOX-treated rats; type: in vivo; settings: DOX 3 mg/kg/week 2 weeks, 2-week recovery, 40× magnification
Procedure: Heart tissues were dehydrated, imbedded in paraffin and sliced. Slices were incubated in Mayer's hematoxylin reagent (ScyTek) for 5 min and covered with bluing reagent (ScyTek) for 15 seconds and eosin Y (ScyTek) solution for 3 minutes. Images of the rat cardiomyocyte were taken using a Zeiss Axiovert 200 microscope with RT Insight camera and SPOT Advanced Imaging software in 40× magnification at the Microscopy and Imaging Facility at Wayne State University.
Presence of vacuolization in heart tissue, a sign of cardiotoxicity (14), was not observed at 40× magnification.

- increase of plasma 14,15-DHET level (nanowell) [2]: ~20 fold
- increase of plasma 14,15-DHET ([4]; Patient #3, after vs before 3 months of DOX treatment): ~38%
- increase of plasma 14,15-DHET ([4]; Patient #4, after vs before 3 months of DOX treatment): ~55%
- plasma 14,15-DHET levels ([4]; Patients #2 and #5, after vs before 3 months of DOX treatment): did not significantly increase
SMILES: COc1cccc2c1C(=O)c1c(O)c3c(c(O)c1C2=O)C[C@@](O)(C(=O)CO)C[C@@H]3O[C@H]1C[C@H](N)[C@H](O)[C@H](C)O1 [DOX, doxorubicin]
- cardiotoxicity detected ([1]; 5 breast cancer patients, at completion of 3 months of DOX treatment): no cardiotoxicity
- reduction of LVEF ([1]; Patient #3, 3 months after 3 months of DOX treatment was completed): ~28%
- reduction of LVEF ([1]; Patient #4, 3 months after 3 months of DOX treatment was completed): 22%
- reduction of LVEF ([1]; Patients #3 and #4, 6 months after 3 months of DOX treatment was completed): around 20%
- reduction of LVEF ([1]; Patients #3 and #4, at 3 and 6 months after DOX treatment was completed): higher than 20%
- change of LVEF ([1]; the other patients (#1, #2, #5), at 3 and 6 months after DOX treatment): no significant changes
- cardiac dysfunction including symptomatic heart failure (HF) [3]: 18%
- vacuolization / heart tissue damage (histology) [5]: no vacuolization or heart tissue damage; also recorded: not observed

Source: patent publication US11519922B2, “Methods for identifying risk of chemotherapy-induced cardiotoxicity and targeted medical intervention” (Detroit R&D, Inc., priority 2018, dated 2022)
